Reference: patent publication US20260272966A1, “COMBINATION TREATMENT FOR OVARIAN CANCER” (THE JOHNS HOPKINS UNIVERSITY, priority 2023, published 2026)
“Also recorded” adds a separate entry of the source.

How the values were obtained:
OV90 = experiment: Cell viability assay (CellTiter-Blue), OV90; assay type: cell-based; conditions: for toxicity of the chemotherapeutic agent with ivospemin co-treatment (cell viability): OV90, 2 μM ivospemin 96 h, chemotherapeutic last 24 h
Excerpt: (§1) Cell lines, culture conditions, and reagents. Ovarian adenocarcinoma cell lines A2780 and ACRP were maintained in RPMI 1640 containing 10% fetal bovine serum. Ovarian adenocarcinoma lines CaOV-3 and OV90 were maintained in DMEM supplemented with 10% fetal bovine serum. ID8 mouse ovarian surface epithelial cells (MOSE) overexpressing VEGF and β-Defensin (VDID8+) were maintained in RPMI 1640 supplemented with 10% fetal bovine serum. […] All chemotherapeutics were purchased commercially from Sigma-Aldrich (St. Louis, MO).
(§2) Cell viability assays. Cells were seeded in triplicate wells per condition with a total cell count of 2×10^3 cells per well of a 96-well plate and allowed to adhere overnight. Cells then received 100 μL fresh medium with increasing concentrations of ivospemin. Following 96 hours of ivospemin monotherapy, 20 μL of CellTiter-Blue reagent (Promega, Madison, WI) was added, and following a 3-hour incubation, the fluorescence was measured in black, clear-bottom plates at 560Ex/590Em on a SpectraMax M5 (Molecular Devices, Sunnyvale CA). Wells containing medium alone were used as background controls. The combination chemotherapy/ivospemin experiment conditions were identical except following 72 hours of ivospemin exposure, cells received fresh medium with ivospemin and the appropriate chemotherapeutic. After an additional 24 hours (96 total hours of ivospemin, 24 hours of chemotherapy), cell viability was determined using the CellTiter-Blue cell viability assay. Results are presented as percentages relative to untreated cells. Each bar is an average of at least 3 independent biological experiments (each experiment is noted by an individual point).

[1] = system: ovarian adenocarcinoma cell lines; experiment: Cell viability, ovarian adenocarcinoma cell lines taken together; assay type: cell-based; conditions: for added in vitro toxicity/benefit of the chemotherapeutic over ivospemin (SBP-101) alone: cisplatin-sensitive and cisplatin-resistant ovarian cancer cell lines
Excerpt: as §1, §2
The cisplatin-sensitive ovarian adenocarcinoma lines, A2780 and OV90 (FIG. 4A), and the cisplatin-resistant ovarian adenocarcinoma lines, ACRP and CaOV-3 (FIG. 4B), were treated for 96 hours with concentrations of ivospemin ranging from 500 nM to 10 μM. […] These four ovarian adenocarcinoma lines were then treated with various chemotherapeutic agents including gemcitabine (50 nM), topotecan (50 nM), paclitaxel (2 nM) and docetaxel (2 nM). These agents represent standard of care chemotherapeutic options used with some regularity in patients with platinum-resistant ovarian cancer. Cells were treated with three increasing concentrations of each chemotherapy alone to determine an appropriate dose prior to combination studies.

CaOV-3 = experiment: Cell viability assay (CellTiter-Blue), CaOV-3; assay type: cell-based; conditions: for toxicity of the chemotherapeutic agent with ivospemin co-treatment (cell viability): CaOV-3, 2 μM ivospemin 96 h, chemotherapeutic last 24 h
Excerpt: as §1, §2

VDID8+ cells = conditions: NSG mice
SSAT = SSAT activity in treated ovarian adenocarcinoma line; assay type: cell-based, human; conditions: ivospemin 5 μM, doxorubicin 500 nM, 48 hours
Experimental: (§3) FIG. 11. […] The activity of the polyamine catabolic enzyme SSAT and the polyamine biosynthetic enzyme ODC was evaluated.
(§4) The activity of polyamine catabolic enzyme SSAT and polyamine biosynthetic enzyme ODC were evaluated.

ACRP = experiment: Cell viability assay (CellTiter-Blue), ACRP; assay type: cell-based; conditions: for toxicity of the chemotherapeutic agent with ivospemin co-treatment (cell viability): 2 μM ivospemin 96 h, chemotherapeutic last 24 h
Excerpt: as §1, §2

ODC = ODC activity in treated ovarian adenocarcinoma line; assay type: cell-based, human; conditions: ivospemin 5 μM, doxorubicin 500 nM, 48 hours
Experimental: as §3, §4

[2] = system: VDID8+ syngeneic ovarian epithelial cancer cells; experiment: VDID8+ syngeneic mouse model of ovarian cancer (survival, ascites); conditions: for average time between VDID8+ cell injection and ascites formation: 15% weight gain or visible abdominal swelling; for average ascites volume at first drain / effect on survival as single agent: monotherapy; for effect on survival as single agent: VDID8+ model
Experimental: Syngeneic mouse model. Female C57BL/6J wild-type mice (7-8 weeks old, The Jackson Laboratory) were housed at the Johns Hopkins Sidney Kimmel Comprehensive Cancer Center Animal Resources Core and cared for in accordance with the policies set forth by the Johns Hopkins University Animal Care and Use Committee. VEGF-β-Defensin ID8 (VDID8+) syngeneic mouse ovarian surface epithelial cells (first developed by Dr. Katherine Roby) were injected intraperitoneally into C57BL/6 mice (350,000 cells/mouse) (Roby et al., 2000). Treatment of mice began three days following VDID8^+ injection. Mice in the combination study were treated with the following dosing schedule: 24 mg/kg ivospemin 2qw×3, alternating weeks; 30 mg/kg gemcitabine qw×4; 1 mg/kg topotecan 3qw×4. All drugs were administered intraperitoneally. Following production of palpable ascites fluid or a 15% weight gain, animals were drained of their ascites fluid, which was measured as a marker for tumor burden. Decisions for subsequent drains was determined by the same criteria. No animals were drained more than once a week, and animals who survived to a fourth drain were subsequently euthanized.
Statistical analysis. All statistical testing was completed using GraphPad Prism software (v9.5.1, La Jolla, CA). […] Multiple testing correction was performed based on the Benjamini-Hochberg method. […] All mouse survival curves were analyzed using the log-rank (Mantel-Cox) test. Mouse ascites data were analyzed by one-way ANOVA and then individual comparisons were analyzed by two-sided Welch's t-tests unless otherwise specified. Multiple testing correction was performed based on the Benjamini-Hochberg method. […] P-value indications are as follows: *<0.05; **<0.01; ***<0.001; ****<0.0001.

A2780 = experiment: Cell viability assay (CellTiter-Blue), A2780; assay type: cell-based; conditions: for toxicity of the chemotherapeutic agent with ivospemin co-treatment (cell viability): A2780, 2 μM ivospemin 96 h, gemcitabine 50 nM, topotecan 50 nM, paclitaxel 2 nM, docetaxel 2 nM last 24 h
Excerpt: as §1, §2

tumor putrescine levels = conditions: eflornithine infusion; cited from earlier work
[3] = in vivo; cited from earlier work

CC(=O)O[C@H]1C(=O)[C@@]2(C)[C@H]([C@H](OC(=O)c3ccccc3)[C@]3(O)C[C@H](OC(=O)[C@H](O)[C@@H](NC(=O)c4ccccc4)c4ccccc4)C(C)=C1C3(C)C)[C@]1(OC(C)=O)CO[C@@H]1C[C@@H]2O [paclitaxel]
toxicity of the chemotherapeutic agent with ivospemin co-treatment (cell viability) (OV90): did not increase
added in vitro toxicity/benefit of the chemotherapeutic over ivospemin (SBP-101) alone [1]: little to no benefit
added in vitro toxicity/benefit of the chemotherapeutic over ivospemin (SBP-101) alone ([1]; listed as Paclitaxel): did not have any added benefit

CCNCCC(O)CNCCCCNCC(O)CCNCC (stereo not shown) [ivospemin, 3,8,13,18-tetraazaicosane-6,15-diol]
IC50 (OV90; Homo sapiens, OV-90, ivospemin 96 hours, OV90, cisplatin sensitive): 3.24 µM
IC50 (CaOV-3; Homo sapiens, ivospemin 96 hours, CaOV-3, cisplatin resistant): 2.56 µM
tumor burden and ascites formation (VDID8+ cells): Neither ivospemin alone nor the combination treatment decrease tumor burden or delayed ascites formation
IC50 ([1]; 96 hours, A2780, OV90, ACRP, CaOV-3, read-out: IC50 values, all four lines): 0.95 to 3.24 µM
SSAT activity (SSAT): increases SSAT activity
SSAT activity (SSAT; listed as SBP-101): increase SSAT activity
IC50 (ACRP; ivospemin 96 hours, cisplatin resistant): 1.41 µM
ODC activity (ODC): depression of ODC activity
ODC activity (ODC; listed as SBP-101): decreases ODC activity
average time between VDID8+ cell injection and ascites formation [2]: 39.5 days
median survival ([2]; days post-injection, ivospemin 24 mg/kg 2qw×3 alternating weeks, gemcitabine 30 mg/kg qw×4, topotecan 1 mg/kg 3qw×4, i.p.): 52 days
increase in median survival compared to untreated (control) animals ([2]; gemcitabine/topotecan combination study): 20%
average ascites volume at first drain [2]: 1.15 mL
effect on survival as single agent ([2]; listed as SBP-101): marked increase; also recorded: significantly increased
IC50 (A2780; Homo sapiens, ivospemin 96 hours, A2780, cisplatin sensitive): 0.95 µM

NCCCC(N)(C(=O)O)C(F)F (stereo not shown) [eflornithine, 2,5-diamino-2-(difluoromethyl) pentanoic acid]
decrease in tumor putrescine levels (tumor putrescine levels): 90%

CC(=O)O[C@@]12CO[C@@H]1C[C@H](O)[C@@]1(C)C(=O)[C@H](O)C3=C(C)[C@@H](OC(=O)[C@H](O)[C@@H](NC(=O)OC(C)(C)C)c4ccccc4)C[C@@](O)([C@@H](OC(=O)c4ccccc4)[C@H]21)C3(C)C [docetaxel]
toxicity of the chemotherapeutic agent with ivospemin co-treatment (cell viability) (OV90): did not increase
added in vitro toxicity/benefit of the chemotherapeutic over ivospemin (SBP-101) alone [1]: little to no benefit; also recorded: did not have any added benefit

CC[C@@]1(O)C(=O)OCc2c1cc1n(c2=O)Cc2cc3c(CN(C)C)c(O)ccc3nc2-1 [topotecan]
toxicity of the chemotherapeutic agent with ivospemin co-treatment (cell viability) (OV90): did increase; also recorded: increased the toxicity
toxicity of the chemotherapeutic agent with ivospemin co-treatment (cell viability) (CaOV-3): significantly increased; also recorded: increased the toxicity
added in vitro toxicity/benefit of the chemotherapeutic over ivospemin (SBP-101) alone [1]: increased ivospemin toxicity; also recorded: increased the in vitro toxicity of SBP-101
toxicity of the chemotherapeutic agent with ivospemin co-treatment (cell viability) (ACRP): greater toxicity than ivospemin alone; also recorded: significantly exceeded the effect of ivospemin alone
average time between VDID8+ cell injection and ascites formation [2]: 43.4 days
average ascites volume at first drain [2]: 3.19 mL
effect on survival as single agent [2]: Neither gemcitabine nor topotecan produced a statistically significant survival benefit; also recorded: little effect
toxicity of the chemotherapeutic agent with ivospemin co-treatment (cell viability) (A2780): significantly exceeded the effect of ivospemin alone

COc1cccc2c1C(=O)c1c(O)c3c(c(O)c1C2=O)C[C@@](O)(C(=O)CO)C[C@@H]3OC1CC(N)C(O)C(C)O1 (stereo partly drawn) [doxorubicin, (8S,10S)-10-(4-amino-5-hydroxy-6-methyl-tetrahydro-2H-pyran-2-yloxy)-6,8,11-trihydroxy-8-(2-hydroxyacetyl)-1-methoxy-7,8,9,10-tetrahydrotetracene-5,12-dione]
SSAT activity (SSAT): increases SSAT activity
nausea and vomiting, share of people treated [3]: 30-90%
ODC activity (ODC): does not have any effect
median survival ([2]; ivospemin 24 mg/kg 2qw×4 alternating weeks, doxorubicin 0.5 mg/kg 2qw×4): 96 days
effect on survival as single agent [2]: significantly increased

Nc1ccn([C@@H]2O[C@H](CO)[C@@H](O)C2(F)F)c(=O)n1 [gemcitabine]
toxicity of the chemotherapeutic agent with ivospemin co-treatment (cell viability) (OV90): did increase; also recorded: increased the toxicity
toxicity of the chemotherapeutic agent with ivospemin co-treatment (cell viability) (CaOV-3): significantly increased; also recorded: increased the toxicity
added in vitro toxicity/benefit of the chemotherapeutic over ivospemin (SBP-101) alone [1]: increased ivospemin toxicity; also recorded: increased the in vitro toxicity of SBP-101
toxicity of the chemotherapeutic agent with ivospemin co-treatment (cell viability) (ACRP): greater toxicity than ivospemin alone; also recorded: significantly exceeded the effect of ivospemin alone
average time between VDID8+ cell injection and ascites formation [2]: 41.7 days
average ascites volume at first drain [2]: 2.03 mL
effect on survival as single agent [2]: Neither gemcitabine nor topotecan produced a statistically significant survival benefit
effect on survival as single agent ([2]; listed as Gemcitabine): little effect
toxicity of the chemotherapeutic agent with ivospemin co-treatment (cell viability) (A2780): significantly exceeded the effect of ivospemin alone
